Assay results reported in patent publication US9056067B2, “Pharmaceutical composition for enhancing immunity, and extract of Poria” (Sinphar Pharmaceutical Co., Ltd., priority 2003, dated 2015).

Key:
Assay type in all cases: in vivo, mice
IgM [1] = test: IgM secretion by spleen cells in vitro (LPS, ELISA) after oral administration; conditions: for Dose with significant increase in IgM secretion by spleen cells: oral, after three days of in vitro culture
Procedure: (§1) […] […] The control group was the mice feeding with an equal volume of saline (0.85% of NaCl). Mice were sacrificed at day five, and both the serum and spleen cells were collected. The sera were subsequently used to measure the concentration of IgG, IgM and IgA. The spleen cells were plated onto a 100 mm diameter culture plate and incubated at 37° C. for three hours. The non-adherent cells containing T-lymphocytes, B-lymphocytes and NK cells were collected and properly diluted as described in each assay.
(§2) The mouse to be sacrificed was cervical dislocated and sterilized with 70% ethanol. The cardiac punctuation was performed first to withdraw the blood. After the haemagglutination, the blood sample was subjected to centrifugation and the serum was collect. For isolation of spleen cells, the peritoneum was opened to remove the spleen. The fresh spleen was transferred to a culture plate containing 10 ml of RPMI-1640 culture medium. The spleen was then ground over a fine mesh to release the spleen cells. The spleen cells suspending in the medium were then removed and transferred to a 50-ml conical centrifuge tube. The tube was subjected to centrifugation at 1300 rpm for 10 min. The supernatant was discarded and the pellet was re-suspended in 1 ml of cold RBC lysing buffer containing EDTA-NH4Cl. The cells were incubated at room temperature for 10 min, followed by washing the cells three times with culture medium by centrifugation. The spleen cells were plated onto a 100 mm diameter culture plate and incubated at 37° C. for three hours. The non-adherent cells containing T-lymphocytes, B-lymphocytes and NK cells were collected and properly diluted as described in each assay.
(§3) An ELISA was performed in our study to measure the immunoglobulin concentration. Briefly, the spleen cells (5×10^5 cells/ml) were cultured in a medium containing RPMI 1640 supplemented with 10% fetal bovine serum (FBS), 2 mM L-glutamine, antibiotics and 5 μg/ml lipopolysaccharide (LPS; 1 μg/10^5 cells) for 5 days. LPS is a polyclonal activator of B lymphocyte. Culture spleen cell supernatants were collected at day 3, 4 and 5. IgA, IgG and IgM concentrations were measured using a sandwich ELISA technique.
(§4) The procedure for IgM assay was similar to that for IgG assay, except that the samples were 1/10^4 diluted and standard IgM ranged from 1 μg/ml to 0.0156 μg/ml were added (100 μl/well). The secondary antibody for the assay was HRP-conjugated goat anti-mouse IgM (1:1,000 diluted; heavy chain-specific; Zymed Laboratory, CA).

IgM [2] = test: Serum level of IgM (ELISA); conditions: for Dose with significant increase in serum level of IgM: oral
Procedure: as §1, §2, §3, §4

IgG = test: Serum level of IgG (ELISA)
Procedure: as §1, §2, §3
A 96-well microtiter plate (Nunc-Immuno Plate, MaxiSorp, Nunc, Denmark) was precoated with 100 ng/well of capture antibodies at 4° C. overnight. The capture antibody was a rabbit anti-mouse IgG+IgA+IgM antibody (Zymed Laboratory, CA). The plate was washed with PBS-0.05% Tween 20 solution and blocked with PBS-1% gelatin. After the blocking, the properly diluted samples (1/10^5 diluted) and standard IgG ranged from 0.25 μg/ml to 0.039 μg/ml were added (100 μl/well). The plate was then incubated at 37° C. for 2 h. At the end of incubation, HRP-conjugated goat anti-mouse IgG (1:2,000 diluted; anti-whole IgG molecule; Zymed Laboratory, CA) was added (100 μl/well). After 1 h of incubation at 37° C., the color was developed using a substrate solution containing 0.1 M citrate buffer, pH 4.5, 0.03% H2O2 and 0.1% of o-phenylenediamine. The absorbence at 490 nm in each well was read using an ELISA reader (EL311, BioTek, VT), and the data was analyzed using log-logit model.

IgA = IgA secretion by spleen cells in vitro (LPS, ELISA) after oral administration
Procedure: as §1, §2, §3
as §4, with “IgA” for “IgM”, “IgA (1:1000” for “IgM (1:1,000”, “diluted;” for “diluted; heavy chain-specific;”

[3] = oral 10 mg/kg/day for four days
[4] = oral 20 mg/kg/day for four days

Row | Structure (SMILES) | IgM secretion by spleen cell, incubation day 3 (IgM [1]; oral 5 mg/kg/day for four days) | IgM secretion by spleen cell, incubation day 4 (IgM [1]; oral 5 mg/kg/day for four days) | IgM secretion by spleen cell, incubation day 5 (IgM [1]; oral 5 mg/kg/day for four days) | IgM secretion by spleen cell, incubation day 3 (IgM [1]; [3]) | IgM secretion by spleen cell, incubation day 4 (IgM [1]; [3]) | IgM secretion by spleen cell, incubation day 5 (IgM [1]; [3]) | IgM secretion by spleen cell, incubation day 3 (IgM [1]; [4]) | IgM secretion by spleen cell, incubation day 4 (IgM [1]; [4]) | IgM secretion by spleen cell, incubation day 5 (IgM [1]; [4]) | Dose with significant increase in IgM secretion by spleen cells (IgM [1]) [mg/kg/day] | Dose with significant increase in serum level of IgM (IgM [2]) [mg/kg/day] | Serum immunoglobulin concentration IgM (IgM [2]; oral 5 mg/kg/day for four days) [mg/mL] | Serum immunoglobulin concentration IgM (IgM [2]; [3]) [mg/mL] | Serum immunoglobulin concentration IgM (IgM [2]; [4]) [mg/mL] | Serum immunoglobulin concentration IgG (IgG; oral 5 mg/kg/day for four days) [mg/mL] | Serum immunoglobulin concentration IgG (IgG; [3]) [mg/mL] | Serum immunoglobulin concentration IgG (IgG; [4]) [mg/mL] | IgA secretion by spleen cell, incubation day 3 (IgA; oral 5 mg/kg/day for four days) | IgA secretion by spleen cell, incubation day 4 (IgA; oral 5 mg/kg/day for four days) | IgA secretion by spleen cell, incubation day 5 (IgA; oral 5 mg/kg/day for four days) | other results
1 | C=C(CC[C@@H](C(=O)O)[C@H]1[C@H](O)C[C@@]2(C)C3=CC[C@H]4C(C)(C)C(=O)CC[C@]4(C)C3=CC[C@]12C)C(C)C [K3] | 222.42 ± 42.83 | 214.45 ± 28.51 | 277.52 ± 101.63 | 287.66 ± 44.44 | 294.30 ± 30.68 | 309.51 ± 30.88 | 372.14 ± 69.48 | 519.53 ± 52.63 | 606.44 ± 88.10 | 10 | 5 | 1.63 ± 0.11 | 1.53 ± 0.14 | 1.53 ± 0.13 | 1.32 ± 0.09 | 1.28 ± 0.13 | 1.14 ± 0.11 | 32.83 ± 7.00 | 27.37 ± 5.83 | 21.96 ± 4.17 | Effect on IgA secretion by spleen cells (in words) (IgA; oral): significantly suppressed; IgA secretion by spleen cell, incubation day 3 (IgA; [3]): 26.57 ± 3.68; IgA secretion by spleen cell, incubation day 4 (IgA; [3]): 28.97 ± 5.95; IgA secretion by spleen cell, incubation day 5 (IgA; [3]): 18.87 ± 2.66; IgA secretion by spleen cell, incubation day 3 (IgA; [4]): 43.08 ± 4.05; IgA secretion by spleen cell, incubation day 4 (IgA; [4]): 43.45 ± 5.92; IgA secretion by spleen cell, incubation day 5 (IgA; [4]): 30.50 ± 3.60
2 | C=C(CCC(C(=O)O)C1C(O)CC2(C)C3=CCC4C(C)(CCC(O)C4(C)C)C3=CCC12C)C(C)C (stereo not drawn) [K4] | 463.65 ± 76.41 | 688.17 ± 85.78 | 649.89 ± 70.09 | 514.45 ± 70.30 | 733.58 ± 95.70 | 807.32 ± 104.21 | 747.6 ± 128.42 | 746.50 ± 157.76 | 857.49 ± 92.19 | ≥ 5 | 5 | 2.65 ± 0.21 | 2.86 ± 0.16 | 2.36 ± 0.16 | 3.75 ± 0.18 | 4.33 ± 0.29 | 4.18 ± 0.25 | 55.56 ± 4.71 | 79.51 ± 3.74 | 106.69 ± 7.29 | IgA secretion by spleen cell, incubation day 3 (IgA; [3]): 66.43 ± 5.26; IgA secretion by spleen cell, incubation day 4 (IgA; [3]): 95.39 ± 10.08; IgA secretion by spleen cell, incubation day 5 (IgA; [3]): 121.97 ± 12.69; IgA secretion by spleen cell, incubation day 3 (IgA; [4]): 119.59 ± 15.08; IgA secretion by spleen cell, incubation day 4 (IgA; [4]): 101.53 ± 25.08; IgA secretion by spleen cell, incubation day 5 (IgA; [4]): 133.16 ± 20.09; Dose with increase in IgA secretion by spleen cells (IgA; oral, PCM-K1 at day 3 and day 5): ≥ 5 mg/kg/day
